According to patent publication US20230248745A1, “SILVER ENHANCED CANNABINOID ANTIBIOTICS” (priority 2020, published 2023):
“Also recorded” adds a separate entry of the source. Read-outs that look alike come from different tables or passages of the source.

Experiments:
[1] = test system: MRSA (USA300); test: Checkerboard assay, FICI of cannabinoid/silver combinations; assay type: cell-based, Methicillin-resistant Staphylococcus aureus
Protocol: (§1) Antibacterial growth was measured using a checkerboard analysis or qualitatively using agar plates with zones of inhibition. Viability was measured by the number of colony forming units (CFU) over time.
(§2) Using checkerboard analysis, the fractional inhibitory concentration index (FICI) was calculated for the 96-well plate test to illustrate synergy.
(§3) MRSA strain, USA300, was cultured in Luria-Bertani (LB) medium and inoculated at 37 C.
(§4) Cannabinoids or silver (expressed as the concentration of silver not the salt) were serially diluted 2-fold across the 96-well plate (Costar, catalog no. 3370) followed by addition of 100 μL of bacterial cultures with an OD600 of 0.0025. […] Wells turbidity were then analyzed using Varioskan™ microplate reader.
(§5) FICI was calculated in a checkerboard assay based on the turbidity of the wells. FIC of each agent was determined as the ratio of the minimal inhibitory concentration MIC of one agent in the presence of the other agent to the MIC of that agent alone. FICI was consequently computed as the sum of each agent's FIC.

[2] = test system: E. coli strain K12; test: as above; assay type: cell-based, Escherichia coli; conditions: for FICI Silver Nanoparticles: Silver Nanoparticles in combination with the cannabinoid; for FICI Silver Sulfate: Silver Sulfate in combination with the cannabinoid
Protocol: as §1, §2
(§6) Escherichia coli (E. coli), strain K12, was cultured in Luria-Bertani (LB) medium and inoculated at 37 C.
as §4, §5

[3] = test system: MRSA (strain USA300); test: microbe, parasite or virus in culture; assay type: cell-based, Methicillin-resistant Staphylococcus aureus; conditions: Staphylococcus aureus; agent alone; silver expressed as silver; read-out: MIC
Text: In therapeutic applications, synergy between active ingredients occurs when an observed combined therapeutic effect is greater than the sum of therapeutic effects of individual active ingredients, or a new therapeutic effect is produced that the active ingredients could not produce alone. […] In this context, the enhancement of therapeutic effect may take the form of increased efficacy or potency and/or decreased adverse effects. The synergistic effect may be mediated in whole or in part by the pharmacokinetics and/or pharmacodynamics of the active ingredients in a subject, so that the amount and proportion of the ingredients in the formulation may be synergistic in vivo. This in vivo synergy may be effected with a formulation that includes the active ingredients in amounts and proportions that are also synergistic in in vitro assays of efficacy. As used herein, the term “synergistically effective amounts” accordingly refers to amounts that are synergistic in vivo and/or in vitro. A numeric quantification of synergy is often expressed as a fractional inhibitory concentration index (FICI), which represents the sum of the fractional inhibitory concentrations (FICs) of each drug tested, where the FIC is determined for each drug by dividing the minimum inhibitory concentration (MIC, the lowest concentration of the drug which prevents visible growth of the bacterium in a standard in vitro assay—standard colorometric assay based on resazurin) of each drug when used in combination by the MIC of each drug when used alone. In very general terms, a FICI lower or higher than 1 indicates positively correlated activity (at least additive or potentiation) or an absence of positive interactions, respectively. […] (as described and used by Joung D K et al. and Rakoliya K et al.)
as §4

[4] = test system: MRSA (strain USA300); test: Kill-curve test (CFU over time); assay type: cell-based, Methicillin-resistant Staphylococcus aureus; conditions: for combined inhibitory effects compared to ½×MIC combinations: cannabinoid ¼×MIC + AgNPs
Protocol: as §1, §3
(§7) For each test tube, 1 mL of culture at OD600 of 0.005 was added to 1 mL of LB medium containing antibiotics to reach target sub-MIC concentrations of each compound. Samples of 100 μL was extracted from each tube at the determined time stamps followed by 10-fold serial dilutions. 10 μL of each dilution was then added on the LB agar plates that were subsequently incubated for 24 hours. Colonies were inspected and results quantified as log CFU/mL.

[5] = test system: E. coli (strain K12); test: Kill-curve test (CFU over time); assay type: cell-based, Escherichia coli; conditions: for growth inhibition: 1.25 mg/L and 0.625 mg/L (lower concentrations)
Protocol: as §1, §6, §7

[6] = test system: MRSA (strain USA 300); assay type: cell-based, Methicillin-resistant Staphylococcus aureus; conditions: for antibiotic effect of combination compared with silver nanoparticles alone: cannabinoid 2% + silver nanoparticles 2% silver w/w to PVA, films or coated catheter sections; for inhibition of bacterial growth (ring): single agent at 2% w/w to PVA, films and coated catheter sections, 24 hours
Protocol: PVA films were made by solvent casting using 33 μl drops of 2.5% PVA (88% hydrolyzed, 125 KDa molecular weight) mixed with CBC, CBG or CBGA (2% w/w to PVA). […] 3 mm sections of a urethral catheter (BARDEX® BARD®) were cut and coated with the same 33 μl volume of PVA/Silver/cannabinoid used to make films. Films and coated catheter sections were dried overnight in the dark. Five cavities were created in the LB agar plates containing MRSA (strain USA 300) at OD600 of 0.005. PVA films and catheters coated with PVA films were then placed in the cavities and moistened with 20 μL of deionized distilled water. Plates were incubated for 24 hours at 37° C.

[7] = test system: MRSA; test: Agar plate test of CBGA with silver nanoparticles; assay type: cell-based, Methicillin-resistant Staphylococcus aureus
Protocol: Four LB agar plates were prepared with MRSA culture at OD600 of 0.005. (FIG. 4) Each plate contained different concentrations of CBGA (no CBGA, ½ MIC, ¼ MIC, and ⅛ MIC). All plates were then divided into quadrants, each of which received 8 μL of AgNP at different concentrations from 20 mg/L serially diluted by 2-fold down to 2.5 mg/L in 0.2 mM sodium citrate.

[8] = test system: E. coli (strain K12); conditions: agent alone
Text: In therapeutic applications, synergy between active ingredients occurs when an observed combined therapeutic effect is greater than the sum of therapeutic effects of individual active ingredients, or a new therapeutic effect is produced that the active ingredients could not produce alone. […] In this context, the enhancement of therapeutic effect may take the form of increased efficacy or potency and/or decreased adverse effects. The synergistic effect may be mediated in whole or in part by the pharmacokinetics and/or pharmacodynamics of the active ingredients in a subject, so that the amount and proportion of the ingredients in the formulation may be synergistic in vivo. This in vivo synergy may be effected with a formulation that includes the active ingredients in amounts and proportions that are also synergistic in in vitro assays of efficacy. […] A numeric quantification of synergy is often expressed as a fractional inhibitory concentration index (FICI), which represents the sum of the fractional inhibitory concentrations (FICs) of each drug tested, where the FIC is determined for each drug by dividing the minimum inhibitory concentration (MIC, the lowest concentration of the drug which prevents visible growth of the bacterium in a standard in vitro assay—standard colorometric assay based on resazurin) of each drug when used in combination by the MIC of each drug when used alone. […]

[9] = Silver Nanoparticles in combination with the cannabinoid
[10] = Silver Nitrate in combination with the cannabinoid
[11] = cannabinoid with silver nanoparticles
[12] = cannabinoid with silver nitrate
[13] = cannabinoid with silver sulfate
[14] = cannabinoid ½×MIC + AgNP 1/160×MIC (0.25 mg/L)
[15] = cannabinoid ½×MIC + AgNP ⅛×MIC (5 mg/L)
[16] = cannabinoid ½×MIC + silver nitrate 1 mg/L
[17] = cannabinoid ½×MIC + silver nitrate 5 and 8 mg/L
[18] = 8 mg/L cannabinoid + 2.5, 1.25 and 0.625 mg/L AgSO4 (each)

Row | Compound | FICI [1, 9] | FICI [1, 10] | interaction (interpretation of FICI) [1, 11] | interaction (interpretation of FICI) [1, 12] | FICI Silver Nanoparticles [2] | FICI Silver Sulfate [2] | interaction (interpretation of FICI) [2, 11] | interaction (interpretation of FICI) [2, 13] | MIC [3] [µg/mL] | kill-curve effect (CFU) [4] | time for which bactericidal effect persisted [4] [h] | MRSA growth by 24 hours ([4]; cannabinoid alone at ½×MIC) | combined inhibitory effects compared to ½×MIC combinations [4] | kill-curve effect (CFU) [4, 14] | kill-curve effect (CFU) [4, 15] | time through which bactericidal effect persisted [4, 15] [h] | antibiotic effect of combination compared with silver nanoparticles alone [6] | inhibition of bacterial growth (ring) [6] | other results
1 | CCCCCc1cc(O)c2c(c1)OC(C)(CCC=C(C)C)C=C2 (stereo not shown) [CBC, cannabichromene] | 0.141 | 0.375 | synergistic | strongly synergistic | 0.73 | 0.63 | potentiation | potentiation | 8 | nearly identical full bactericidal effect | 24 | full bacterial growth had occurred; also recorded: returned to levels approximating that of 0×MIC treatment | weaker and less durable | strong bactericidal effect | full bactericidal effect | 24 | increased antibiotic effect | some level of inhibition | time of onset of bactericidal effect [4]: ≤ 2 h; duration of bacterial growth inhibition ([4]; cannabinoid alone at ½×MIC): 6 h; duration of strong inhibition ([4]; cannabinoid ¼×MIC + silver nitrate 1 mg/L): 6 h; kill-curve effect (CFU) ([4]; cannabinoid ¼×MIC + silver nitrate 5 and 8 mg/L): Almost identical results; time of onset of bactericidal effect [4, 15]: 2 h; effect at 24 hours [4, 16]: strong inhibition of bacterial growth; kill-curve effect (CFU) [4, 16]: complete bactericidal effect; time for which bactericidal effect remained [4, 16]: 6 h; time of onset of bactericidal effect [4, 16]: 2 h; kill-curve effect (CFU) [4, 17]: fully bactericidal; time of onset of bactericidal effect [4, 17]: 2 h; time through which bactericidal effect remained [4, 17]: 24 h; time through which bacterial growth was inhibited [5]: 24 h; time through which the effect persisted [5]: 24 h; time to the reduction in E. coli CFU [5]: ≤ 6 h; time through which E. coli growth was inhibited [5, 18]: 24 h; time to the reduction in E. coli CFU [5, 18]: ≤ 4 h; inhibitory effect on E. coli growth over 24 hours ([5]; cannabinoid alone, 8 mg/L): failed to achieve any inhibitory effect; inhibition of E. coli growth over 24 hours ([5]; cannabinoid alone, 16 mg/L): failed to achieve any inhibition; inhibition of E. coli growth (summary) ([5]; cannabinoid alone, concentrations up to 16 mg/L): fail to achieve any detectable inhibition
2 | CCCCCc1cc(O)c(C/C=C(\C)CCC=C(C)C)c(O)c1C(=O)O [CBGA, cannabigerolic acid] | 0.375 | 0.53 | synergistic | partial synergy | 0.73 | 0.75 | potentiation | potentiation | 4 | nearly identical full bactericidal effect | 24 | returned to levels approximating that of 0×MIC treatment | weaker and less durable | strong bactericidal effect | full bactericidal effect | 24 | increased antibiotic effect | some level of inhibition | inhibition of MRSA growth ([7]; CBGA at ½ MIC in the agar): strong inhibition of MRSA growth in all wells; antibiotic effect ([7]; CBGA at ½ MIC in the agar + 20 mg/L silver nanoparticles): strongest antibiotic effect; inhibition of bacterial growth (darkening in the photo) ([7]; CBGA at ⅛ MIC or ¼ MIC in agar + AgNP 2.5-20 mg/L): concentration dependent darkening; antibiotic effect of combination compared with silver nitrate alone ([6]; cannabinoid 2% + silver nitrate 2% silver w/w to PVA): increased antibiotic effect
3 | O=S(=O)([O-])[O-].[Ag+].[Ag+] [silver sulfate] |  |  |  |  |  |  |  |  |  |  |  |  |  |  |  |  |  |  | MIC [8]: 2.5 µg/mL; growth inhibition ([5]; AgSO4 alone): very little inhibitory effects; growth inhibition ([5]; AgSO4 alone, listed as AgSO4): some initial growth inhibition; bactericidal effects (net reduction in bacterial CFU) ([5]; AgSO4 alone, 2.5 mg/L): no bactericidal effects; period of inhibition of E. coli growth ([5]; AgSO4 alone, 2.5 mg/L): 6 h; total increase in bacterial CFU at 24 hours ([5]; AgSO4 alone, 2.5 mg/L): approximately 1 log; inhibitory effect on E. coli growth (summary) ([5]; silver sulfate alone at 2.5 mg/L): weak inhibitory effect
